{"source": "patent US20240189388A1", "about": "“MEDICATION FOR TREATING LUNG INJURY” (SHANGHAI SEME CELL TECHNOLOGY CO., LTD., priority 2021, published 2024)", "test_system": "LPS-induced acute respiratory distress syndrome", "assay": "Histopathological examination of lung, HE staining, LPS-induced ARDS rat model (Example 1)", "type": "in vivo, SD rats", "set-up": "key to Pulmonary pathological score, Inflammation, Sited 1 / Pulmonary pathological score, Inflammation, Sited 2 / Pulmonary pathological score, Inflammation, Sited 3 / Pulmonary pathological score, Alveolar wall thickness, Sited 1 / Pulmonary pathological score, Alveolar wall thickness, Sited 2 / Pulmonary pathological score, Alveolar wall thickness, Sited 3: 0: NA; 1: Slight; 2: Moderate; 3: Severe; Pulmonary pathological score, Mean of total / Pulmonary pathological score, Inflammation, Mean / Pulmonary pathological score, Alveolar wall thickness, Mean / Pulmonary pathological score, Total: scale not given here", "procedure": "Normal adult male SD rats were randomly grouped, 5 rats in each group. The animals were intraperitoneally injected and nebulized in the trachea with lipopolysaccharides (LPS) as a modeling reagent, as shown in Table 1:\nThe animals in groups G1 and G2 were intraperitoneally injected with lipopolysaccharides (0.8 mg/kg. body weight) according to their body weight, anesthetized by inhaling isoflurane after 16 h of the intraperitoneal injection, and nebulized with lipopolysaccharides (5 mg/kg. body weight) in the trachea.\nThe animals were administered for the first time within 1 h after the intratracheal nebulization with the modeling reagent (LPS), and the second time after 24 h.\nAfter the bronchoalveolar lavage fluid was collected from all the animals, the chest cavity was opened to take the right lung. The lung was infused with formalin by using an injection needle, fixed in a 10% neutral buffer formalin solution, followed by paraffin embedding, slicing, section preparation, and HE staining for pathological morphological observation of lung tissues. Professional pathologists carried out pathological testing on the lung tissues.", "key": {"[1]": {"details": "G2 compared to model control group G1"}, "[2]": {"details": "mean of 3 sites per animal G2-1 to G2-5, 1 mg/kg"}, "[3]": {"details": "single animals G2-1 to G2-5, 1 mg/kg, score 0-3"}}, "note": "“And” between values parts separate entries of the source, which are not always exact repeats. Equal entries are not always repeated.", "data": [{"substance": "Annexin A5", "values": [{"measurement": "Effect on LPS-induced acute respiratory distress syndrome (pathological analysis)", "setting": "[1]", "result": "significant improvement"}, {"measurement": "Lung injury in stained pathological sections (FIG. 4)", "setting": "[1]", "result": "significantly improved"}, {"measurement": "Pulmonary pathological score, Mean of total", "setting": "group G2, 5 rats, 1 mg/kg", "result": 2.33}, {"measurement": "Pulmonary pathological score, Alveolar wall thickness, Mean", "setting": "[2]", "result": "0.67 (3×) and 1.00 and 1.33"}, {"measurement": "Pulmonary pathological score, Inflammation, Mean", "setting": "[2]", "result": "1.67 and 2.00 and 1.33 (2×) and 1.00"}, {"measurement": "Pulmonary pathological score, Total", "setting": "per animal G2-1 to G2-5, 1 mg/kg", "result": "2.33 (2×) and 3.00 and 2.00 (2×)"}, {"measurement": "Pulmonary pathological score, Alveolar wall thickness, Sited 1", "setting": "[3]", "result": "0 (2×) and 1 (2×) and 2"}, {"measurement": "Pulmonary pathological score, Alveolar wall thickness, Sited 2", "setting": "[3]", "result": "1 (4×) and 2"}, {"measurement": "Pulmonary pathological score, Alveolar wall thickness, Sited 3", "setting": "[3]", "result": "1 (3×) and 0 (2×)"}, {"measurement": "Pulmonary pathological score, Inflammation, Sited 1", "setting": "[3]", "result": "2 (2×) and 1 (3×)"}, {"measurement": "Pulmonary pathological score, Inflammation, Sited 2", "setting": "[3]", "result": "2 and 3 and 1 (3×)"}, {"measurement": "Pulmonary pathological score, Inflammation, Sited 3", "setting": "[3]", "result": "1 (3×) and 2 (2×)"}]}]}
